Earlier results, collected in patent US20190142336A1, “SYSTEMS AND METHODS FOR DETERMINING RESPONSE TO ANESTHETIC AND SEDATIVE DRUGS USING MARKERS OF BRAIN FUNCTION” (THE GENERAL HOSPITAL CORPORATION, priority 2016, published 2019).

Experiments:
[1] = test system: dopamine and norepinephrine reuptake transporters
[2] = plethysmography and blood gas

Structure (SMILES)	behavioral and respiratory effects induced by methylphenidate ([1]; given against methylphenidate-induced arousal)	emergence from general anesthesia ([1]; isoflurane general anesthesia)	minute ventilation [2]
O=C(CCCN1CC=C(n2c(=O)[nH]c3ccccc32)CC1)c1ccc(F)cc1 [droperidol]	inhibited	–	–
COC(=O)C(c1ccccc1)C1CCCCN1 (stereo not drawn) [methylphenidate]	–	actively induces emergence	increases minute ventilation
